Assay [1] concerns the target Dual specificity tyrosine-phosphorylation-regulated kinase 1B (Homo sapiens) (UniProt Q9Y463). As to the kind of experiment: Inhibition of human DYRK1B at 18.6 nM by HotSpot assay relative to control.
In assay [2] the target is T1, Activin receptor type-1 (Homo sapiens) (UniProt Q04771).
T1 sequence (whole entry): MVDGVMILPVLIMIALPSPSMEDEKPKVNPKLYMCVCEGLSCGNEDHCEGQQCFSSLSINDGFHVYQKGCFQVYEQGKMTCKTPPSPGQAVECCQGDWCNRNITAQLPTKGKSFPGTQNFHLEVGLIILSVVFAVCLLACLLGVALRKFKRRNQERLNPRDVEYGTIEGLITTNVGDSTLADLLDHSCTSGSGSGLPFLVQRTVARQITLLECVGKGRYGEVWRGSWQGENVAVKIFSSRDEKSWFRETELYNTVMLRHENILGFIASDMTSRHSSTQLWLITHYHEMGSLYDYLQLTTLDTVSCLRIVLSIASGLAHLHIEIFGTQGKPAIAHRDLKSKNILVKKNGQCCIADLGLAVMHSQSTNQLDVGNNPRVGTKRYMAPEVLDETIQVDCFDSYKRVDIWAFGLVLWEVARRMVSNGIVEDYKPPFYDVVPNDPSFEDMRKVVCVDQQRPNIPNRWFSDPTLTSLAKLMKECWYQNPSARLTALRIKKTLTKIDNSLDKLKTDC
Description: Inhibition of human ALK2 at 18.6 nM by HotSpot assay relative to control.

In assay [3] the target is Serine/threonine-protein kinase pim-3 (Homo sapiens) (UniProt Q86V86). Description: Inhibition of human PIM3 at 18.6 nM by HotSpot assay relative to control.
In assay [4] the target is Fibroblast growth factor receptor 4 (Homo sapiens) (UniProt P22455). As to the kind of experiment: Inhibition of human FGFR4 at 18.6 nM by HotSpot assay relative to control.
Assay [5] has as its target SRSF protein kinase 2 (Homo sapiens) (UniProt P78362). As to the kind of experiment: Inhibition of human SRPK2 at 1.82 nM by HotSpot assay relative to control.
The target in assay [6] is T2, cGMP-dependent protein kinase 1 (Homo sapiens) (UniProt Q13976).
T2 sequence (whole entry): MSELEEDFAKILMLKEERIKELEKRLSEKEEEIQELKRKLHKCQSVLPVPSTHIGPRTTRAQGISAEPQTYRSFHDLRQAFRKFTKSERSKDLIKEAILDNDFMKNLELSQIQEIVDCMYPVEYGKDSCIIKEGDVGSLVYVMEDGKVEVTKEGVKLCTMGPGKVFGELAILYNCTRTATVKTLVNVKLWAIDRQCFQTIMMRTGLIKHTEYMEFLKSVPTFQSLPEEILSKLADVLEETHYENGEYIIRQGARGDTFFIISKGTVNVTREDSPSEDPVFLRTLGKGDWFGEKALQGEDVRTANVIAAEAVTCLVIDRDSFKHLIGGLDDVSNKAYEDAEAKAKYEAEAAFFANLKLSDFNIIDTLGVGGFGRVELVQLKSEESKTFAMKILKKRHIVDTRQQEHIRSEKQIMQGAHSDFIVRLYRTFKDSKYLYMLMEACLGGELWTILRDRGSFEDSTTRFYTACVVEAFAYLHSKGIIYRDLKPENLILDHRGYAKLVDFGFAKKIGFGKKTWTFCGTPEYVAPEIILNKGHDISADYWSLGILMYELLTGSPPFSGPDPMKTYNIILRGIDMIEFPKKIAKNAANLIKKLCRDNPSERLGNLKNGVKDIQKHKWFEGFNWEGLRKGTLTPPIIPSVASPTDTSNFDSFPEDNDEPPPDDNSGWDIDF
As to the kind of experiment: Inhibition of human PKG1b at 1.82 nM by HotSpot assay relative to control.

Assay [7] addresses T3, Interleukin-1 receptor-associated kinase 4 (Homo sapiens) (UniProt Q9NWZ3).
T3 sequence (whole entry): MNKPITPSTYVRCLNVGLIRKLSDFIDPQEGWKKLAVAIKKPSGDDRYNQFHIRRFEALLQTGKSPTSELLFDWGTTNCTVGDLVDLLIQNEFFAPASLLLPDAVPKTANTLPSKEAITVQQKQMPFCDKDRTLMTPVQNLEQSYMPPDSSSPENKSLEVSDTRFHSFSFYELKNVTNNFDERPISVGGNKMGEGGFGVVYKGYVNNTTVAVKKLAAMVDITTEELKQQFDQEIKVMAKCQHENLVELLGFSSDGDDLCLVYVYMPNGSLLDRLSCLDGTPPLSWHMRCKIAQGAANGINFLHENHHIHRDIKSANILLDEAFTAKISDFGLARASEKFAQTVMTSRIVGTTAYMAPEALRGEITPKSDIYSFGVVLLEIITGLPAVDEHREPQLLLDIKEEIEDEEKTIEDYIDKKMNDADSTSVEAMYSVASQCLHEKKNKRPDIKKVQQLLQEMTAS
Description: Inhibition of human IRAK4 at 1.82 nM by HotSpot assay relative to control.

Assay [8] concerns the target T4, Inhibitor of nuclear factor kappa-B kinase subunit epsilon (Homo sapiens) (UniProt Q14164).
T4 sequence (whole entry): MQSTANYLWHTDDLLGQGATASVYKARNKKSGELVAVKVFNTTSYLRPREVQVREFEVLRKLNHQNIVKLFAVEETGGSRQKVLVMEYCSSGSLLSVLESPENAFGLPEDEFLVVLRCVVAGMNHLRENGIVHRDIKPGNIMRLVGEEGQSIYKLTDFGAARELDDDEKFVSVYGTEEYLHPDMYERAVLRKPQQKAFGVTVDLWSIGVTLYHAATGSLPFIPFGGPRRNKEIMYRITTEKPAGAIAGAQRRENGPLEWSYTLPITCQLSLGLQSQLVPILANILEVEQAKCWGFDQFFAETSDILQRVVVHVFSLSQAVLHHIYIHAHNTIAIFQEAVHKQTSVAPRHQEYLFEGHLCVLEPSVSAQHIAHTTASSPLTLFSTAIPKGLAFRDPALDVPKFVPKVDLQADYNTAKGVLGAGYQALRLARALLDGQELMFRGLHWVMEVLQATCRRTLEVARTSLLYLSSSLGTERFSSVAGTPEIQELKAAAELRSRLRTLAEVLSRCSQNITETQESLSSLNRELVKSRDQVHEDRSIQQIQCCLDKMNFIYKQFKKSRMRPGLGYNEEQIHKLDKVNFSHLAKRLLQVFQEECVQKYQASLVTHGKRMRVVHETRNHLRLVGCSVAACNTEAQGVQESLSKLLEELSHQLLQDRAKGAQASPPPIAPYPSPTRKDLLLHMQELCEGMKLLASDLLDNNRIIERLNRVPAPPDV
The settings on record: dose 1.82 nM.
Description: Inhibition of human IKKe at 1.82 nM by HotSpot assay relative to control

Chain of Fibroblast growth factor receptor 4 (Homo sapiens) (P22455 22-802 limits assumed): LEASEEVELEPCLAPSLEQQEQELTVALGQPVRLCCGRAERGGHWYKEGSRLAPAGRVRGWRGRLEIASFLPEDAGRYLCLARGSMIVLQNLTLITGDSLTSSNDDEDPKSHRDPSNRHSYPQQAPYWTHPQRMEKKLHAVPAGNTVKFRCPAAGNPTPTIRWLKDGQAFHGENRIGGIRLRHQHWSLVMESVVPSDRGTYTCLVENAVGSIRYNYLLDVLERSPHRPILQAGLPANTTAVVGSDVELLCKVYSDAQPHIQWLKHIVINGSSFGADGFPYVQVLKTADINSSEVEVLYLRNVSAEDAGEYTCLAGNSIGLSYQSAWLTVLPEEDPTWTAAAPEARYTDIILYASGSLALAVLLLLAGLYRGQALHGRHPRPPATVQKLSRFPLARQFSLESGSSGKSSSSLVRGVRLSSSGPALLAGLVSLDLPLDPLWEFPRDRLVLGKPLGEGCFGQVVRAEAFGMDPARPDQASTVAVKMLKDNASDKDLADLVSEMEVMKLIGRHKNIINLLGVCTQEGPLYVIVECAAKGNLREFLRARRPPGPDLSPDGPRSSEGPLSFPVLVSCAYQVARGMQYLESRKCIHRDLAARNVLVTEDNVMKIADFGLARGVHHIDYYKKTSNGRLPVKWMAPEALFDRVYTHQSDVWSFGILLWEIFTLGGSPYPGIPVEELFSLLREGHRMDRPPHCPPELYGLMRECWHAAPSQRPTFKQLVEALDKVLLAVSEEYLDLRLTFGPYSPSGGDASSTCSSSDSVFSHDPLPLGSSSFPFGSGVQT
Chain of SRSF protein kinase 2 (Homo sapiens) (P78362 whole entry, looked up): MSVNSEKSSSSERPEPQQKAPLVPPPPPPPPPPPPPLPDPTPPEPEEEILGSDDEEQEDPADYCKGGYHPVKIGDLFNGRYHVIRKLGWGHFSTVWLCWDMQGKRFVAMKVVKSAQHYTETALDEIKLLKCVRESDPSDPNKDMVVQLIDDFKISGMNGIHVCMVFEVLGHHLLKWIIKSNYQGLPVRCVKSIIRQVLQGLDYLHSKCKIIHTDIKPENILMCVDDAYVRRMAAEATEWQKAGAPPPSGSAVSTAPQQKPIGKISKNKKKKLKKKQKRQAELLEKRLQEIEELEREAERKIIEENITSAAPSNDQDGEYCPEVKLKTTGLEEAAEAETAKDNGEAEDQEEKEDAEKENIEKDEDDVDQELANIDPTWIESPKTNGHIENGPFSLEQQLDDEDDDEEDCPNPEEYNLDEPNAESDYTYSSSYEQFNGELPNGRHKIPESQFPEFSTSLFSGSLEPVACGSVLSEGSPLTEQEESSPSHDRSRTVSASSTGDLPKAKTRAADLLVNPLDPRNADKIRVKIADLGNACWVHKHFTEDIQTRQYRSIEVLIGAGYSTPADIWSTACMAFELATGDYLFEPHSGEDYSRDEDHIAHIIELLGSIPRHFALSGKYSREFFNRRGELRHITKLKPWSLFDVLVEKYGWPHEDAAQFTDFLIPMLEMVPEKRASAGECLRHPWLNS
Chain of Dual specificity tyrosine-phosphorylation-regulated kinase 1B (Homo sapiens) (Q9Y463 whole entry, looked up): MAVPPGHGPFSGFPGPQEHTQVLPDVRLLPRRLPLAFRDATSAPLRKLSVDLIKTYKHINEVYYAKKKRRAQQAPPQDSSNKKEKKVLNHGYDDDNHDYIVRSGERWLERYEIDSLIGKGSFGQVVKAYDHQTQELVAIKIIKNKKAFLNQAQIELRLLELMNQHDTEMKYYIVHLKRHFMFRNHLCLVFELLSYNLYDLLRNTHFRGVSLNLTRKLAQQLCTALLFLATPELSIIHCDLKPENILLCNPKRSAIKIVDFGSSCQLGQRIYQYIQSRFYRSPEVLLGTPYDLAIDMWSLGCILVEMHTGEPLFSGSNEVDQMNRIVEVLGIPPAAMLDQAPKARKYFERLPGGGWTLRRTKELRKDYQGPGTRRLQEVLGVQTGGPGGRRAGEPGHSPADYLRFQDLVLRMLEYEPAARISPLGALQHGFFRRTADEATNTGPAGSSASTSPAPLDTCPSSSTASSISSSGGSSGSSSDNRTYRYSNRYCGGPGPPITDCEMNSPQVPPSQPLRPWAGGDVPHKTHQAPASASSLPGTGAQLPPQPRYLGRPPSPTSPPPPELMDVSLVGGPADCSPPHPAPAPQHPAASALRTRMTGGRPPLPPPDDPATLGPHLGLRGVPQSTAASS

For `C[C@]1(O)C[C@@H](c2nc(-c3ccc4ccc(-c5ccccc5)nc4c3)c3c(N)nccn32)C1`, the inhibition in assay [1] was found to be 1.39%; in assay [2], 1.44%; in assay [3], 20.9%; in assay [4] it was 9%.

As for `C[C@@]1(C(=O)Nc2ccc(F)nc2)CCCN1c1nc(Nc2cc(C3CC3)n[nH]2)c2cccn2n1`, the inhibition in assay [5] is -2.03%; in assay [6], -2.16%; in assay [7] it was -4.67%; in assay [8] it was 5.87%.

Values taken from ChEMBL document CHEMBL5653615 (J Biol Chem, 2013).
